Patent US9827210B2, “Treatment or prophylaxis of a neurological or neuropsychiatric disorders via ocular administration” (Phovitreal Pty Ltd, priority 2007, dated 2017)

Legend:
[1] = tested on: rats with experimental Parkinson's disease; assay: 6-hydroxy dopamine model of Parkinson's disease in rats, intraocular or intravitreal injection; assay type: in vivo; conditions: bilateral 6-hydroxy dopamine lesion, 2 μl of 10 mMol solution into vitreous humor of both eyes on days 2, 3 and 4 after surgery, versus PD+IOVeh (70% DMSO)
Description: At appropriate concentrations, the neurotoxin 6-hydroxy dopamine produces specific and permanent depletion of dopamine in the brain and more specifically of the nigro-striatal dopamine system (Ungerstedt, U. et al, Adv. Neurol., 5, 421, 1974; Willis, G. L. & Armstrong, S. A., Brain Res. Rev., 27, 177, 1998). Intracranial injections of 6-hydroxy dopamine were used to produce a model of Parkinson's disease (and schizophrenia). Bilateral lesions produced a vegetative, akinetic syndrome in which there is a lack of voluntary movement, hunched posture and body weight loss accompanied by a loss in the ability to eat and drink.
b) After preparatory surgery that permitted access to the brain, rats were induced with bilateral experimental Parkinson's disease by injection of the neurotoxin 6-hydroxy dopamine into the nigro-striatal dopamine system. On days 2, 3 and 4 after surgery a single 2 μl intraocular or intravitreal injection was made into the vitreous humor of both eyes. The solution injected was either a 10 mMol solution of ML-23 (PD+IODrug) or a 10 mMol solution of vehicle (PD+IOVeh). The vehicle used was 70% DMSO. For comparison, a control group was not made Parkinsonian but received intraocular or intravitreal injection of vehicle in the same volume as the experimental groups (C+IOVeh). […]

[2] = tested on: Sprague-Dawley rats pre-treated with dl-amphetamine; assay: dl-amphetamine-induced psychosis in rats, intravitreal injection, motor tests; assay type: in vivo; conditions: 2 μl of 12.5 μg/μl into vitreous humor after 5 days of 1 mg/kg dl-amphetamine i.p.; measured three hours after injection; versus 80% DMSO vehicle; FIG. 4
Description: Lesions to the brain dopamine systems in mammalian brain serve as models for various neuropsychiatric disorders. When drugs such as amphetamines are administered to animals for a certain period of time psychotic symptoms develop such as increased activity, agitation and decreased latency time to perform various motor tasks. In other words, opposite to those symptoms seen in Parkinson's disease, the time to perform various motor tasks decreased: they perform them quicker.
At appropriate concentrations, the addictive drug, dl-amphetamine (1 mg/kg) was injected intraperitoneally to produce psychosis and addiction in Sprague-Dawley rats. After 5 days of such treatment each animal was tested for their level of activity in a computerized activity chamber and on three motor tests. On the day after completion of the injections half the animals received a 2 μl injection of haloperidol (12.5 μg/μl) into the vitreous humor, just in front of the retina. The other half of the animals received a 2 μl injection of vehicle (80% DMSO solution) into the vitreous humor. The effects of such injections on various parameters of movement, such as the latency to ambulate and the latency to retract a front paw, were measured three hours after animals received their intravitreal injection. […]

SMILES | horizontal movement ([1]; FIG. 1) | ability to retract/move the front limb ([1]; FIG. 2) | latency to ambulate from a prescribed area [2] | latency to retract an elevated limb [2]
COc1ccc2[nH]cc(CCNc3ccc([N+](=O)[O-])cc3[N+](=O)[O-])c2c1 [ML-23] | better horizontal movement | better performance on the ability to move the front limb | – | –
O=C(CCCN1CCC(O)(c2ccc(Cl)cc2)CC1)c1ccc(F)cc1 [haloperidol] | – | – | increased | increased
